This is an account of results in patent publication US11129820B2, “Ferroportin-inhibitor salts” (Vifor (International) AG, priority 2017, dated 2021).

In one experiment the target is T1, ferroportin (Fpn) (Mus musculus, UniProt Q9JHI9).
T1 construct: endogenous in cells; host or cells: J774 mouse macrophage cell line (DSMZ, Cat. ACC170), induced with 200 uM Fe(III)-NTA
T1 sequence (Q9JHI9 1-570): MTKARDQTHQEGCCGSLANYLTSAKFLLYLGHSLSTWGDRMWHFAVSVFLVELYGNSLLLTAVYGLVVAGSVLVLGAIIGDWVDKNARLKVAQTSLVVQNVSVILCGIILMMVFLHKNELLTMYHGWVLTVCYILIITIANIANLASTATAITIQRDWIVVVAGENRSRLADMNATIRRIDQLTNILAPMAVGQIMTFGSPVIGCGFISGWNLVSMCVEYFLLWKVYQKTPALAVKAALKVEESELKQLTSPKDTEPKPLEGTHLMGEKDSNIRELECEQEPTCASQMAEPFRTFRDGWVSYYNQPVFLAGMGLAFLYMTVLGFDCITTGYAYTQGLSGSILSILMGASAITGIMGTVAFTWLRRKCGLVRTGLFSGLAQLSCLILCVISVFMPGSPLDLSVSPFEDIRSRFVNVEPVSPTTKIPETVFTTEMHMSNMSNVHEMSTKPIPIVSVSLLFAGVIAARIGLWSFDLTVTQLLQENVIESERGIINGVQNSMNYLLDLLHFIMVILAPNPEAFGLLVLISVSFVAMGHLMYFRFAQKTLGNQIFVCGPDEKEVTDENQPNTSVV
As to the kind of experiment: Ferroportin Ubiquitination and Degradation (J774, immunoprecipitation, Western blot). The experiment is classed as cell-based. Further details: key: +: comparable to hepcidin; −: no effect; +/−: intermediate effect. As to conditions: J774 cells, ca. 10-fold IC50 concentration, visual inspection of Western blots. How it is done: Exposure of cells expressing ferroportin (Fpn) to hepcidin is known to trigger ubiquitination and subsequent internalization and degradation of Fpn (Qiao, 2012). The potential of Fpn inhibitors to induce Fpn ubiquitination and degradation is investigated with an immunoprecipitation assay using the J774 mouse macrophage cell line which expresses Fpn upon treatment with iron.
Cells are incubated with synthetic human hepcidin (Bachem, Cat. H-5926) or Fpn inhibitor compounds for 10 min or 120 min. Cells are washed and lysed with ice-cold lysis buffer (Pierce, Life Technoligies, Cat. 87787) including 1×HALT protease inhibitor cocktail (Life technologies, Cat. 78429) and 10 mM iodoacetamide (Sigma, Cat. 16125) to stabilize ubiquitinated proteins. Immunoprecipitation is done using the Pierce Classic IP Kit (Life Technologies, Cat. 26146) following the manufacturer's protocol. Briefly, 2 mg protein in 1.25 ml IP lysis buffer is incubated by mixing for 1 h at 4° C. with control agarose beads to pre-clear the lysate and reduce nonspecific signal. Unbound lysate is then incubated overnight with 12 μg per reaction of the affinity purified anti-Fpn antibody F308 that was raised against a GST fusion protein of mouse Fpn amino acids 224-308. Immune complexes are captured by pipetting 14 μl settled Pierce Protein A/G Plus Agarose beads (Life Technologies, Cat. 20423) per reaction and the slurry is incubated for 1.5 h at 4° C. with gentle end-over-end mixing. The beads are washed and immune complexes are eluted directly with 75 μl SDS NuPAGE LDS sample buffer (Life Technologies, Cat. NP0007) containing DTT (Life Technologies, Cat. NP0009).
After immunoprecipitation samples are analyzed by Western blotting using a rabbit anti-mouse MTP1 antiserum (Alpha Diagnostic International, Cat. MTP11-A) and a mouse anti-mono- and polyubiquitinylated conjugates monoclonal antibody (Enzo Lifesciences, Cat. BML-PW8810) for detection of ferroportin and ubiquitin, respectively. Mouse monoclonal anti-rabbit IgG light chain (Abcam, Cat. ab99697) and anti-mouse IgG H&L (Abcam, Cat. ab6789) HRP conjugates are used as secondary antibodies.
(In general: Immunoblotting shows a protein as a band on a membrane.)

The next experiment deals with naïve WT C57BL/6 mice. The experiment can be described thus: Hypoferremia in naïve mice. The format is in vivo, mouse. As to conditions: injection in WT naïve mice, maximal effect at 3-4 hours post treatment. As for the experimental part: Injection of synthetic hepcidin in wild-type (WT) naïve mice results in a reduction of serum iron levels (40-50% from the vehicle control) with a maximal effect at 3-4 hours post treatment (Rivera, 2005; FIG. 12A).
Female C57BL/6 mice (Janvier, France) at age of 9 weeks are fed a standard diet (Harlan Provimi Kliba 3436) and treated per os (p.o.) with compounds or the corresponding amount of vehicle at a volume of 10 ml/kg body weight. Fpn inhibitors are formulated in 0.5% methylcellulose/water or 20% cremophor EL/water and dosed p.o. in mice at 10, 30 or 100 mg/kg body weight. Three hours later, mice are pre-terminally anesthetized in isoflurane chambers and blood is collected by retro-orbital bleeding. Mice are sacrificed by cervical dislocation and spleens, livers and duodena were harvested and used for biomarker analysis. All experiments are conducted in compliance with the license approved by the responsible veterinarian authorities. Serum is isolated by centrifugation of blood into gel-containing microtainers and serum iron is determined by the MULTIGENT Iron assay (Abbott Diagnostics, 6K95). Eight mice per group are used and one-way ANOVA with Bonferroni's multiple comparison test is performed to analyze the statistical differences between the experimental groups.
Table 6 Efficacy of Fpn inhibitors tested in the naïve mouse hypoferremia model. Serum iron reduction induced by selected ferroportin inhibitors dosed p.o. in naïve WT C57BL/6 mice at 10, 30 and 100 mg/kg. Relative serum iron reduction at 3 h after dosing was calculated by subtracting the average of serum iron values of animals dosed with the Fpn inhibitor from that of vehicle-treated animals. The difference in average serum iron values between vehicle and compound treated groups was then divided by the average of serum iron of the vehicle control group and listed as percentage.

SMILES strings stand for the structures.

Regarding `CC[C@H](C)[C@@H]1NC(=O)[C@@H](NC(=O)[C@@H](NC(=O)[C@@H]2CCCN2C(=O)[C@H](Cc2ccccc2)NC(=O)[C@H](Cc2c[nH]cn2)NC(=O)[C@@H](NC(=O)[C@@H](N)CC(=O)O)[C@@H](C)O)[C@@H](C)CC)CSSC[C@@H](C(=O)N[C@@H](CCCCN)C(=O)N[C@H](C(=O)O)[C@@H](C)O)NC(=O)[C@@H]2CSSC[C@@H]3NC(=O)[C@@H]4CSSC[C@H](NC(=O)[C@H](Cc5ccccc5)NC1=O)C(=O)N[C@@H](CSSC[C@H](NC(=O)[C@H](CCCCN)NC(=O)[C@H](CO)NC(=O)[C@H](CCCNC(=N)N)NC(=O)[C@H](Cc1c[nH]cn1)NC3=O)C(=O)NCC(=O)N[C@@H](CCSC)C(=O)N2)C(=O)NCC(=O)N4` [hepcidin, reference compound], at ferroportin (Fpn), the “Fpn Degradation (120 min.)” value is recorded as “+” and the “Fpn Ubiquitination (10 min.)” value is reported as “+”. Further, the “Reduction of serum iron levels from the vehicle control” value with naïve WT C57BL/6 mice was 40-50%.
